Where two headings read alike, the source gives them in different places.
Tested on: faecal proteolytic activity
Assay: Human faecal proteolytic activity (in-vitro), succinyl albumin substrate
Type: biochemical
Description: Human faecal extracts (from asymptomatic volunteers) were obtained by suspending samples of stool in 4 volumes of M/15M KH2 PO4 /Na2 HPO4 pH 7.5 containing 50 mM NaCl and centrifuging at 10,000 g for 15 minutes at 4° C. The supernatant was retained as the faecal extract.
Proteolytic activity was measured using a modification of the method of Lin et al, J.Biol.Chem. 244 (4), 789-793 (1969), i.e. a sensitive trinitrobenzene sulphonic acid assay for formation of new peptide N-terminals using succinyl albumin as substrate. Faecal extract containing one unit of protease activity (equivalent to 1 μg trypsin) was mixed with 0.5 ml buffer (M/15 phosphate pH 7.5) or inhibitor. Substrate (0.5 ml, 8 mgml^-1 succinyl albumin) was added to start the reaction and samples were incubated for 30 minutes at 37° C. Four per cent (w/v) sodium bicarbonate (0.5 ml) and 0.05% (w/v) trinitrobenzene sulphonic acid were added to trinitrophenylate the free amino groups formed and samples were incubated at 50° C. for 10 minutes to develop colour.
10% (w/v) Sodium dodecyl sulphate (0.5 ml) and 1M HCl (0.25 ml) were added to complete the reaction. Absorbance at 340 nm was measured. All samples were compared with heat inactivated faecal extract controls (100° C., 10 minutes).
A linear increase in N-terminals formed by proteolytic cleavage of peptide bonds was found over the first 30 minutes of digestion. […] Proteolytic activity in faecal extracts against succinyl albumin was inhibited by soybean trypsin inhibitor (1 μg) and P.M.S.F. (1 mM) but not by iodoacetamide (50 mM) or Na2 E.D.T.A. (10 mM). In view of this, levels of faecal protease activity were subsequently quantified as equivalents of porcine pancreatic trypsin activity by weight.

With `O=C(O)CN(CCN(CC(=O)O)CC(=O)O)CC(=O)O` [Na2 E.D.T.A.] the “Inhibition of proteolytic activity in faecal extracts against succinyl albumin” value (“Inhibition of proteolytic activity” below) was “not”.

In the case of `O=S(=O)(F)Cc1ccccc1` [P.M.S.F., phenylmethylsulphonyl fluoride], the “Inhibition of proteolytic activity” value (1 mM) is reported as “inhibited”.

`NC(=O)CI` [iodoacetamide] was tested, and the “Inhibition of proteolytic activity” value (50 mM) was “not”.

B1: soybean trypsin inhibitor (protein, UniProt P01070 25-205, looked up)
Trypsin inhibitor A: DFVLDNEGNPLENGGTYYILSDITAFGGIRAAPTGNERCPLTVVQSRNELDKGIGTIISSPYRIRFIAEGHPLSLKFDSFAVIMLCVGIPTEWSVVEDLPEGPAVKIGENKDAMDGWFRLERVSDDEFNNYKLVFCPQQAEDDKCGDIGISIDHDDGTRRLVVSKNKPLVVQFQKLDKESL
For B1, the “Inhibition of proteolytic activity” value (1 μg) was “inhibited”.

Reference: US5051253A, “Use of polyacrylates to reduce proteolytic activity in the human intestinal tract” (Reckitt & Colman Products Limited, priority 1988, dated 1991)
